Series [1] can be described thus: Gln and CBD concentration in the synovial fluid 8 hours after oral administration. The settings on record: 8 h after oral administration of 15 mg/Kg CBD + 500 mg/Kg Gln. Here is the method:
(§1) Three different water-soluble CBD oral formulae were tested, F #01 (20%), L #02 (2.5% CBD) and I #03 (20% CBD), and administered at 15 mg/Kg rat.
(§2) The three formulae were tested in combination with 500 mg/Kg Glucosamine (Gln).
(§3) The total administered volume was 10 mL/Kg (CBD+Gln).
(§4) The trial was performed on Sprague Dawley male rat (n=3/group).
(§5) A single dose containing CBD and Gln was provided PO at t=0.
Gln concentration in the synovial fluid was examined 8 hours after oral administration.

A short description of series [2]: in vivo. The settings on record: male, Sprague Dawley, rat. Here is the method: as §1, §2, §3, §4, §5
CBD and Gln plasma concentrations were examined 1, 4 and 8 hours following a single administration.

Molecules are shown by their SMILES.

On to `C=C(C)[C@@H]1CCC(C)=C[C@H]1c1c(O)cc(CCCCC)cc1O` [CBD, Cannabidiol], for which the “CBD in the synovial fluid” value in series [1] is “No CBD was detected”.
In the case of `N[C@H]1C(O)O[C@H](CO)[C@@H](O)[C@@H]1O` (some centres unmarked) [Gln, Glucosamine], in series [2], the “decrease of Gln plasma concentration from the 4 h point” value amounted to 94.0%. Besides, in series [2] (po, 500 mg/kg), the concentration at 1 h was determined as 2.04 ng/mL, the concentration at 4 h is 134 ng/mL and the concentration at 8 h stood at 8 ng/mL.

The record behind these values is patent US20210275556A1, “Cannabidiol Combination Compositions” (Companion Sciences. LLC, priority 2018, published 2021).
